Laboratory results from ChEMBL document CHEMBL1131732, “Potential anxiolytic agents. 3. Novel A-ring modified pyrido[1,2-a]benzimidazoles” (Bioorg Med Chem Lett, 1999).

Each compound was assayed against GABA-A receptor; anion channel (assay: In vitro inhibitory against Gamma-aminobutyric acid A receptor from rat cerebral cortex using [3H]flunitrazepam as the radioligand). Settings: not given.
Type: tissue-based
With `O=C(Nc1ccccc1F)C1=C(O)CCn2c1nc1ccc3ccccc3c12` the IC50 was over 1 µM. Work on `COc1cccc2c1nc1n2CCC(O)=C1C(=O)Nc1c(F)cccc1F` yielded an IC50 of 0.156 µM. Work on `O=C(Nc1ccccc1F)C1=C(O)CCn2c1nc1ncccc12` yielded an IC50 of 0.0035 µM. In the case of `O=C(Nc1ccccc1F)C1=C(O)CCn2c1nc1c(Cl)cccc12`, the IC50 is reported as 0.0071 µM. In the case of `O=C(Nc1ccccc1)C1=C(O)CCn2c1nc1cc(Cl)ccc12`, the IC50 is reported as 0.0656 µM. In the case of `O=C(Nc1c(F)cccc1F)C1=C(O)CCn2c1nc1c(F)c(F)ccc12`, the IC50 is reported as 0.0011 µM. For `O=C(Nc1c(F)cccc1F)C1=C(O)CCn2c1nc1ccc(F)c(F)c12`, the IC50 was 0.0662 µM. For `O=C(Nc1ccccc1F)C1=C(O)CCn2c1nc1c(O)cccc12`, the IC50 was 0.0104 µM. With `O=C(Nc1c(F)cccc1F)C1=C(O)CCn2c1nc1c(F)cc(F)cc12` the IC50 was 0.0301 µM. `O=C(Nc1ccccc1F)C1=C(O)CCn2c1nc1c3ccccc3ccc12` showed an IC50 of 0.154 µM. Compound `O=C(Nc1ccccc1F)C1=C(O)CCn2c1nc1ccc(F)c(F)c12` has an IC50 of 0.857 µM. With `O=C(Nc1c(F)cccc1F)C1=C(O)CCn2c1nc1c(Cl)cccc12` the IC50 was 0.0011 µM. In the case of `O=C(Nc1ccccc1F)C1=C(O)CCn2c1nc1cc(Cl)ccc12`, the IC50 is reported as 0.0051 µM. Compound `O=C(Nc1ccccc1F)C1=C(O)CCn2c1nc1cc(C(F)(F)F)ccc12` has an IC50 of 0.184 µM. `O=C(Nc1c(F)cccc1F)C1=C(O)CCn2c1nc1ncccc12` gave an IC50 of 0.0301 µM. Work on `COc1ccc2c(c1)nc1n2CCC(O)=C1C(=O)Nc1ccccc1` yielded an IC50 of 0.0395 µM. For `O=C(Nc1ccccc1F)C1=C(O)CCn2c1nc1cccnc12`, the IC50 was 0.291 µM.

The compounds below were run on Mus musculus (assay: In vivo inhibitory activity against metrazole-induced seizures in mice by intraperitoneal administration). Settings: ip.
Type: functional
`O=C(Nc1ccccc1F)C1=C(O)CCn2c1nc1ccc3ccccc3c12` gave an ED50 of over 1 mg/kg. `O=C(Nc1ccccc1F)C1=C(O)CCn2c1nc1ncccc12` gave an ED50 of 1 mg/kg. `O=C(Nc1ccccc1F)C1=C(O)CCn2c1nc1c(Cl)cccc12` gave an ED50 of 1 mg/kg. `O=C(Nc1ccccc1)C1=C(O)CCn2c1nc1cc(Cl)ccc12` gave an ED50 of 1 mg/kg. `O=C(Nc1c(F)cccc1F)C1=C(O)CCn2c1nc1c(F)c(F)ccc12` gave an ED50 of 0.2 mg/kg. With `O=C(Nc1c(F)cccc1F)C1=C(O)CCn2c1nc1ccc(F)c(F)c12` the ED50 was over 1 mg/kg. `O=C(Nc1c(F)cccc1F)C1=C(O)CCn2c1nc1c(F)cc(F)cc12` was tested, and the ED50 was over 1 mg/kg. `O=C(Nc1ccccc1F)C1=C(O)CCn2c1nc1c3ccccc3ccc12` gave an ED50 of over 1 mg/kg. For `O=C(Nc1ccccc1F)C1=C(O)CCn2c1nc1ccc(F)c(F)c12`, the ED50 was over 1 mg/kg. For `O=C(Nc1c(F)cccc1F)C1=C(O)CCn2c1nc1c(Cl)cccc12`, the ED50 was 0.3 mg/kg. Compound `O=C(Nc1ccccc1F)C1=C(O)CCn2c1nc1cc(Cl)ccc12` has an ED50 of 1 mg/kg. With `O=C(Nc1ccccc1F)C1=C(O)CCn2c1nc1cc(C(F)(F)F)ccc12` the ED50 was 1 mg/kg. In the case of `O=C(Nc1c(F)cccc1F)C1=C(O)CCn2c1nc1ncccc12`, the ED50 is reported as 3 mg/kg. Work on `COc1ccc2c(c1)nc1n2CCC(O)=C1C(=O)Nc1ccccc1` yielded an ED50 of 3 mg/kg. Compound `O=C(Nc1ccccc1F)C1=C(O)CCn2c1nc1cccnc12` has an ED50 of over 10 mg/kg.

What follows are compounds tested on Mus musculus (assay: In vivo inhibitory activity against metrazole-induced seizures in mice by peroral administration). Settings: po.
Type: functional
For `O=C(Nc1ccccc1F)C1=C(O)CCn2c1nc1ccc3ccccc3c12`, the ED50 was over 30 mg/kg. `O=C(Nc1ccccc1F)C1=C(O)CCn2c1nc1ncccc12` was tested, and the ED50 was 10 mg/kg. Compound `O=C(Nc1ccccc1F)C1=C(O)CCn2c1nc1c(Cl)cccc12` has an ED50 of over 30 mg/kg. `O=C(Nc1ccccc1)C1=C(O)CCn2c1nc1cc(Cl)ccc12` was tested, and the ED50 was 20 mg/kg. Work on `O=C(Nc1c(F)cccc1F)C1=C(O)CCn2c1nc1c(F)c(F)ccc12` yielded an ED50 of 0.2 mg/kg. Compound `O=C(Nc1c(F)cccc1F)C1=C(O)CCn2c1nc1ccc(F)c(F)c12` has an ED50 of over 1 mg/kg. `O=C(Nc1c(F)cccc1F)C1=C(O)CCn2c1nc1c(F)cc(F)cc12` was tested, and the ED50 was over 1 mg/kg. `O=C(Nc1ccccc1F)C1=C(O)CCn2c1nc1c3ccccc3ccc12` gave an ED50 of over 30 mg/kg. With `O=C(Nc1ccccc1F)C1=C(O)CCn2c1nc1ccc(F)c(F)c12` the ED50 was over 1 mg/kg. Work on `O=C(Nc1c(F)cccc1F)C1=C(O)CCn2c1nc1c(Cl)cccc12` yielded an ED50 of 10 mg/kg. Work on `O=C(Nc1ccccc1F)C1=C(O)CCn2c1nc1cc(Cl)ccc12` yielded an ED50 of about 30 mg/kg. Compound `O=C(Nc1c(F)cccc1F)C1=C(O)CCn2c1nc1ncccc12` has an ED50 of 30 mg/kg. Compound `COc1ccc2c(c1)nc1n2CCC(O)=C1C(=O)Nc1ccccc1` has an ED50 of over 10 mg/kg. With `O=C(Nc1ccccc1F)C1=C(O)CCn2c1nc1cccnc12` the ED50 was over 10 mg/kg.

Each compound was assayed on Rattus norvegicus (assay: Inhibition of experimentally-induced conflict in rats following i.p. administration.). Settings: ip, read-out: MED.
Type: functional
With `O=C(Nc1ccccc1F)C1=C(O)CCn2c1nc1ncccc12` the minimal effective dose was 10 mg/kg. `O=C(Nc1ccccc1F)C1=C(O)CCn2c1nc1c(Cl)cccc12` gave a minimal effective dose of 10 mg/kg. With `O=C(Nc1ccccc1)C1=C(O)CCn2c1nc1cc(Cl)ccc12` the minimal effective dose was 10 mg/kg. Compound `O=C(Nc1c(F)cccc1F)C1=C(O)CCn2c1nc1c(Cl)cccc12` has a minimal effective dose of 10 mg/kg. Compound `O=C(Nc1ccccc1F)C1=C(O)CCn2c1nc1cc(Cl)ccc12` has a minimal effective dose of 10 mg/kg. Compound `O=C(Nc1c(F)cccc1F)C1=C(O)CCn2c1nc1ncccc12` has a minimal effective dose of over 10 mg/kg. With `COc1ccc2c(c1)nc1n2CCC(O)=C1C(=O)Nc1ccccc1` the minimal effective dose was over 10 mg/kg. Compound `O=C(Nc1ccccc1F)C1=C(O)CCn2c1nc1cccnc12` has a minimal effective dose of over 10 mg/kg.

Each compound was assayed on Rattus norvegicus (assay: Inhibitory activity determined by experimentally-induced conflict test in rats after oral administration). Settings: read-out: MED.
Type: functional
`O=C(Nc1ccccc1F)C1=C(O)CCn2c1nc1ccc3ccccc3c12` showed a minimal effective dose of over 10 mg/kg. `O=C(Nc1ccccc1F)C1=C(O)CCn2c1nc1ncccc12` was tested, and the minimal effective dose was over 30 mg/kg. Work on `O=C(Nc1ccccc1F)C1=C(O)CCn2c1nc1c(Cl)cccc12` yielded a minimal effective dose of over 10 mg/kg. `O=C(Nc1ccccc1)C1=C(O)CCn2c1nc1cc(Cl)ccc12` was tested, and the minimal effective dose was over 30 mg/kg. `O=C(Nc1c(F)cccc1F)C1=C(O)CCn2c1nc1c(F)c(F)ccc12` showed a minimal effective dose of 3 mg/kg. `O=C(Nc1c(F)cccc1F)C1=C(O)CCn2c1nc1ccc(F)c(F)c12` gave a minimal effective dose of over 10 mg/kg. For `O=C(Nc1ccccc1F)C1=C(O)CCn2c1nc1c(O)cccc12`, the minimal effective dose was over 10 mg/kg. In the case of `O=C(Nc1c(F)cccc1F)C1=C(O)CCn2c1nc1c(F)cc(F)cc12`, the minimal effective dose is reported as over 10 mg/kg. `O=C(Nc1ccccc1F)C1=C(O)CCn2c1nc1c3ccccc3ccc12` was tested, and the minimal effective dose was over 10 mg/kg. `O=C(Nc1ccccc1F)C1=C(O)CCn2c1nc1ccc(F)c(F)c12` was tested, and the minimal effective dose was over 10 mg/kg. `O=C(Nc1c(F)cccc1F)C1=C(O)CCn2c1nc1c(Cl)cccc12` was tested, and the minimal effective dose was over 10 mg/kg. `O=C(Nc1ccccc1F)C1=C(O)CCn2c1nc1cc(Cl)ccc12` showed a minimal effective dose of over 10 mg/kg. Compound `O=C(Nc1ccccc1F)C1=C(O)CCn2c1nc1cc(C(F)(F)F)ccc12` has a minimal effective dose of over 10 mg/kg. In the case of `O=C(Nc1c(F)cccc1F)C1=C(O)CCn2c1nc1ncccc12`, the minimal effective dose is reported as over 10 mg/kg. For `COc1ccc2c(c1)nc1n2CCC(O)=C1C(=O)Nc1ccccc1`, the minimal effective dose was over 30 mg/kg. With `O=C(Nc1ccccc1F)C1=C(O)CCn2c1nc1cccnc12` the minimal effective dose was over 30 mg/kg.

What follows are compounds tested against GABA-A receptor; anion channel (Rattus norvegicus) (UniProt O09028+P15431+P18506+P18508+P19969+P20236+P23574+P23576+P28471+P28473+P30191+P62813+P63079+P63138+Q91ZM7+Q9ES14) (assay: GABA shift which is the ratio of binding in the absence and presence of GABA (1 mM) was determined). Settings: not given.
Type: protein-complex assay
For `COc1cccc2c1nc1n2CCC(O)=C1C(=O)Nc1c(F)cccc1F`, the GS was 3.7. In the case of `O=C(Nc1ccccc1F)C1=C(O)CCn2c1nc1ncccc12`, the GS is reported as 2.7. `O=C(Nc1ccccc1F)C1=C(O)CCn2c1nc1c(Cl)cccc12` gave a GS of 1.8. `O=C(Nc1ccccc1)C1=C(O)CCn2c1nc1cc(Cl)ccc12` was tested, and the GS was 1.6. For `O=C(Nc1c(F)cccc1F)C1=C(O)CCn2c1nc1c(F)c(F)ccc12`, the GS was 1.4. Work on `O=C(Nc1c(F)cccc1F)C1=C(O)CCn2c1nc1ccc(F)c(F)c12` yielded a GS of 1.7. In the case of `O=C(Nc1ccccc1F)C1=C(O)CCn2c1nc1c(O)cccc12`, the GS is reported as 3. Work on `O=C(Nc1c(F)cccc1F)C1=C(O)CCn2c1nc1c(F)cc(F)cc12` yielded a GS of 2.4. For `O=C(Nc1ccccc1F)C1=C(O)CCn2c1nc1c3ccccc3ccc12`, the GS was 2.8. Work on `O=C(Nc1ccccc1F)C1=C(O)CCn2c1nc1ccc(F)c(F)c12` yielded a GS of 2.5. Compound `O=C(Nc1c(F)cccc1F)C1=C(O)CCn2c1nc1c(Cl)cccc12` has a GS of 1.7. `O=C(Nc1ccccc1F)C1=C(O)CCn2c1nc1cc(Cl)ccc12` was tested, and the GS was 1.8. Compound `O=C(Nc1ccccc1F)C1=C(O)CCn2c1nc1cc(C(F)(F)F)ccc12` has a GS of 4.7. Work on `O=C(Nc1c(F)cccc1F)C1=C(O)CCn2c1nc1ncccc12` yielded a GS of 1.8. `COc1ccc2c(c1)nc1n2CCC(O)=C1C(=O)Nc1ccccc1` was tested, and the GS was 2.5. With `O=C(Nc1ccccc1F)C1=C(O)CCn2c1nc1cccnc12` the GS was 1.3.
